tested on: 20-HETE formation (CYP4) in HLM; experiment: Inhibition of 20-HETE formation at 250 or 500 nM in HLM microsomal incubations; type: biochemical, human; details: 500 nM compound; HLM 300 μg/ml, AA 100 μM, 20 min
Experimental: (§1) To screen the inhibitory effects against 20-HETE formation, compounds were screened in HLM, RLM, RKM and rCYP4F2 microsomal incubations. Compounds dissolved in either 100% methanol or 100% DMSO to yield 10 mM stock solution. Microsomal incubations containing HLM, RLM, RKM (300 μg/ml) or rCYP4F2 (25 pmol/mL), AA (100 μM), NADPH (1 mM) treated with test compounds at various concentrations (500 nM or 250 nM) in a 1 ml total volume in incubation buffer (0.12 M potassium phosphate buffer containing 5 mM magnesium chloride). Reaction was started by adding NADPH to the incubates and was carried out at 37° C. in a shaking water bath for 20 min. Reaction was stopped by placing tubes on ice, followed by adding 125 μl 20-HETE-d6 as internal standard to each sample. Microsomal incubations were extracted with 3 ml ethyl ether twice, dried down under nitrogen gas and reconstituted in 125 μl 80:20 methanol:deionized H2O for analysis. 20-HETE formation was quantified using a validated UPLC-MS/MS assay and normalized by vehicle group. Each compound had three replications (n=3). Vehicle group was used as control to calculate percentage of 20-HETE formation rate. HET0016 (250 nM) was used as positive control. Incubates without NADPH group served as the negative control. An Acquity ultra performance LC autosampler (Waters, Milford, MA) was used to isolate 20-HETE on an UPLC BEH C18, 1.7 μm (2.1×100 mm) reversed-phase column (Waters, Milford, MA) protected by a guard column (2.1×5 mm; Waters, Milford, MA) of the same packing material. Column temperature was maintained at 55° C. Mobile phases consisted of 0.005% acetic acid, 5% acetonitrile in deionized water (A) and 0.005% acetic acid in acetonitrile (B). The flow rate for mobile phases is 0.5 ml/min. The initial mixture of mobile phase was 65:35 of A and B. Mobile phase B increased at 0.4 minutes after injection from 35% to 70% in a linear gradient over 4 minutes, and again increased to 95% over 0.5 minutes where it remained for 0.3 minutes. This was followed by a linear return to initial conditions over 0.1 minutes with a 1.5 minute pre-equilibration period prior to the next sample run. Total run time was 6.4 minutes for each injection. Injection volumes were 7.5 μl. Mass spectrometric analysis was carried out using a TSQ Quantum Ultra (Thermo Fisher Scientific, San Jose, CA) triple quadrupole mass spectrometer using heated electrospray ionization (HESI). Mass spectrometer was operated in negative selective reaction monitoring (SRM) mode with unit resolutions at both Q1 and Q3 set at 0.70 Da full width at half maximum. Scan time was set at 0.01 s and collision gas pressure was 1.3 mTorr. Quantitation of 20-HETE by SRM was performed by monitoring the m/z. Analytical data was acquired and analyzed using Xcaliber 3.0 data system (ThermoFinnigan, San Jose, CA).

First: COc1ccccc1C1CCN(c2ccn[nH]2)CC1 [Compound 21, 4-(2-Methoxyphenyl)-1-(1H-pyrazol-5-yl)piperidine]
Second: COc1ccccc1C1CCN(c2cn[nH]c2)CC1 [Compound 22, 4-(2-Methoxyphenyl)-1-(1H-pyrazol-4-yl)piperidine]
The “HLM % inh. @ 500 nM” value of the first is higher: 8.80% for the first, 0.00% for the second.

Cc1n[nH]cc1N1CCC(c2ccccc2)CC1 [Compound 37, 1-(3-Methyl-1H-pyrazol-4-yl)-4-phenylpiperidine] and Cc1cc(N2CCC(c3ccccc3)CC2)[nH]n1 [Compound 38, 1-(5-Methyl-1H-pyrazol-5-yl)-4-phenylpiperidine] are the same in “HLM % inh. @ 500 nM” value: 0.00% for the first, 0.00% for the second.

First: c1ccc(SC2CCN(c3ccn[nH]3)CC2)cc1 [Compound 39, 4-(Phenylthio)-1-(1H-pyrazol-5-yl)piperidine]
Second: COc1ccc(SC2CCN(c3ccn[nH]3)CC2)cc1 [Compound 68, 4-((4-Methoxyphenyl)thio)-1-(1H-pyrazol-5-yl)piperidine]
The “HLM % inh. @ 500 nM” value of the first is lower: 6.00% for the first, 48% for the second.

COC(=O)c1cccc(C2CCN(c3ccn[nH]3)CC2)c1 [Compound 56, Methyl 3-(1-(1H-pyrazol-5-yl)piperidin-4-yl)benzoate] and COC(=O)c1cccc(C2CCN(c3cn[nH]c3)CC2)c1 [Compound 57, Methyl 3-(1-(1H-pyrazol-4-yl)piperidin-4-yl)benzoate] are the same in “HLM % inh. @ 500 nM” value: 0.00% for the first, 0.00% for the second.

First: COc1cccc(SC2CCN(c3cn[nH]c3)CC2)c1 [Compound 76, 4-((3-Methoxyphenyl)thio)-1-(1H-pyrazol-4-yl)piperidine]
Second: O=C(c1ccc(C2CCN(c3cn[nH]c3)CC2)cc1)N1CCCC1 [Compound 77, (4-(1-(1H-Pyrazol-4-yl)piperidin-4-yl)phenyl)(pyrrolidin-1-yl)methanone]
The “HLM % inh. @ 500 nM” value of the first is lower: 84% for the first, 84.4% for the second.

Compared with O=C(c1ccc(C2CCN(c3ccn[nH]3)CC2)cc1)N1CCCC1 [Compound 78, (4-(1-(1H-Pyrazol-5-yl)piperidin-4-yl)phenyl)(pyrrolidin-1-yl)methanone], O=C(c1ccc(C2CCN(c3ccn[nH]3)CC2)c(F)c1)N1CCCC1 [Compound 82] is lower in “HLM % inh. @ 500 nM” value: 83.6% for the first, 75% for the second.

For COc1ccc(CC2CCN(c3ccn[nH]3)CC2)cc1 [Compound 79, 4-(4-Methoxybenzyl)-1-(1H-pyrazol-5-yl)piperidine], the “HLM % inh. @ 500 nM” value was 60%.

biological target: T1, rCYP4F2 (Homo sapiens, UniProt P78329); experiment: Inhibition of 20-HETE formation at 250 or 500 nM in rCYP4F2 incubations; type: biochemical; details: 500 nM compound; rCYP4F2 25 pmol/mL; read-out: rCYP4F2 % inh. @ 500 nM
T1 sequence (P78329 5-520): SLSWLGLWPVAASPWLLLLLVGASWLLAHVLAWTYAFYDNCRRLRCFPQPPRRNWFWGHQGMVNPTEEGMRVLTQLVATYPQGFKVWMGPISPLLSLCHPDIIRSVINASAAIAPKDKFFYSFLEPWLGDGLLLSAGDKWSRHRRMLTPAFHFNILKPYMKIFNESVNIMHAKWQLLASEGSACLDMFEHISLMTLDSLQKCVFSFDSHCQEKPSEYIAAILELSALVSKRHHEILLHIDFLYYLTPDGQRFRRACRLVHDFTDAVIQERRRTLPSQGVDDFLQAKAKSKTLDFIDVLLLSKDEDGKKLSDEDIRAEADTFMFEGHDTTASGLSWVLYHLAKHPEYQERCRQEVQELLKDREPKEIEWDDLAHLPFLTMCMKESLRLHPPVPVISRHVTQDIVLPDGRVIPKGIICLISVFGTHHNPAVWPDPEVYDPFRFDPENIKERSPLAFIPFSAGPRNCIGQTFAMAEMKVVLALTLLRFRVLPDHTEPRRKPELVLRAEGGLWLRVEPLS
Experimental: as §1

First: COc1ccccc1C1CCN(c2ccn[nH]2)CC1 [Compound 21, 4-(2-Methoxyphenyl)-1-(1H-pyrazol-5-yl)piperidine]
Second: COc1ccccc1C1CCN(c2cn[nH]c2)CC1 [Compound 22, 4-(2-Methoxyphenyl)-1-(1H-pyrazol-4-yl)piperidine]
The inhibition at 0.5 µM of the first is higher: 2% for the first, 0% for the second.

First: Cc1n[nH]cc1N1CCC(c2ccccc2)CC1 [Compound 37, 1-(3-Methyl-1H-pyrazol-4-yl)-4-phenylpiperidine]
Second: Cc1cc(N2CCC(c3ccccc3)CC2)[nH]n1 [Compound 38, 1-(5-Methyl-1H-pyrazol-5-yl)-4-phenylpiperidine]
The inhibition at 0.5 µM of the first is higher: 31.9% for the first, 22.3% for the second.

Going from c1ccc(SC2CCN(c3ccn[nH]3)CC2)cc1 [Compound 39, 4-(Phenylthio)-1-(1H-pyrazol-5-yl)piperidine] to COc1ccc(SC2CCN(c3ccn[nH]3)CC2)cc1 [Compound 68, 4-((4-Methoxyphenyl)thio)-1-(1H-pyrazol-5-yl)piperidine], the inhibition at 0.5 µM rises from 22.7% to 70.9%.

Compared with COC(=O)c1cccc(C2CCN(c3ccn[nH]3)CC2)c1 [Compound 56, Methyl 3-(1-(1H-pyrazol-5-yl)piperidin-4-yl)benzoate], COC(=O)c1cccc(C2CCN(c3cn[nH]c3)CC2)c1 [Compound 57, Methyl 3-(1-(1H-pyrazol-4-yl)piperidin-4-yl)benzoate] is higher in inhibition at 0.5 µM: 11.4% for the first, 41.2% for the second.

Going from COc1cccc(SC2CCN(c3cn[nH]c3)CC2)c1 [Compound 76, 4-((3-Methoxyphenyl)thio)-1-(1H-pyrazol-4-yl)piperidine] to O=C(c1ccc(C2CCN(c3cn[nH]c3)CC2)cc1)N1CCCC1 [Compound 77, (4-(1-(1H-Pyrazol-4-yl)piperidin-4-yl)phenyl)(pyrrolidin-1-yl)methanone], the inhibition at 0.5 µM falls from 71% to 55%.

Going from O=C(c1ccc(C2CCN(c3ccn[nH]3)CC2)cc1)N1CCCC1 [Compound 78, (4-(1-(1H-Pyrazol-5-yl)piperidin-4-yl)phenyl)(pyrrolidin-1-yl)methanone] to O=C(c1ccc(C2CCN(c3ccn[nH]3)CC2)c(F)c1)N1CCCC1 [Compound 82], the inhibition at 0.5 µM rises from 31% to 36%.

Compound COc1ccc(CC2CCN(c3ccn[nH]3)CC2)cc1 [Compound 79, 4-(4-Methoxybenzyl)-1-(1H-pyrazol-5-yl)piperidine] has an inhibition at 0.5 µM of 62%.

tested on: 20-HETE formation (CYP4) in RLM; experiment: Inhibition of 20-HETE formation at 250 or 500 nM in RLM microsomal incubations; type: biochemical, rat; details: 500 nM compound; RLM 300 μg/ml
Experimental: as §1

COc1ccccc1C1CCN(c2ccn[nH]2)CC1 [Compound 21, 4-(2-Methoxyphenyl)-1-(1H-pyrazol-5-yl)piperidine] and COc1ccccc1C1CCN(c2cn[nH]c2)CC1 [Compound 22, 4-(2-Methoxyphenyl)-1-(1H-pyrazol-4-yl)piperidine] are the same in “RLM % inh. @ 500 nM” value: 0.00% for the first, 0.00% for the second.

Cc1n[nH]cc1N1CCC(c2ccccc2)CC1 [Compound 37, 1-(3-Methyl-1H-pyrazol-4-yl)-4-phenylpiperidine] and Cc1cc(N2CCC(c3ccccc3)CC2)[nH]n1 [Compound 38, 1-(5-Methyl-1H-pyrazol-5-yl)-4-phenylpiperidine] are the same in “RLM % inh. @ 500 nM” value: 0.00% for the first, 0.00% for the second.

c1ccc(SC2CCN(c3ccn[nH]3)CC2)cc1 [Compound 39, 4-(Phenylthio)-1-(1H-pyrazol-5-yl)piperidine] and COc1ccc(SC2CCN(c3ccn[nH]3)CC2)cc1 [Compound 68, 4-((4-Methoxyphenyl)thio)-1-(1H-pyrazol-5-yl)piperidine] are the same in “RLM % inh. @ 500 nM” value: 0.00% for the first, 0% for the second.

First: COC(=O)c1cccc(C2CCN(c3ccn[nH]3)CC2)c1 [Compound 56, Methyl 3-(1-(1H-pyrazol-5-yl)piperidin-4-yl)benzoate]
Second: COC(=O)c1cccc(C2CCN(c3cn[nH]c3)CC2)c1 [Compound 57, Methyl 3-(1-(1H-pyrazol-4-yl)piperidin-4-yl)benzoate]
The “RLM % inh. @ 500 nM” value of the first is lower: 0.00% for the first, 43.10% for the second.

First: COc1cccc(SC2CCN(c3cn[nH]c3)CC2)c1 [Compound 76, 4-((3-Methoxyphenyl)thio)-1-(1H-pyrazol-4-yl)piperidine]
Second: O=C(c1ccc(C2CCN(c3cn[nH]c3)CC2)cc1)N1CCCC1 [Compound 77, (4-(1-(1H-Pyrazol-4-yl)piperidin-4-yl)phenyl)(pyrrolidin-1-yl)methanone]
The “RLM % inh. @ 500 nM” value of the first is lower: 0.00% for the first, 13.80% for the second.

First: O=C(c1ccc(C2CCN(c3ccn[nH]3)CC2)cc1)N1CCCC1 [Compound 78, (4-(1-(1H-Pyrazol-5-yl)piperidin-4-yl)phenyl)(pyrrolidin-1-yl)methanone]
Second: O=C(c1ccc(C2CCN(c3ccn[nH]3)CC2)c(F)c1)N1CCCC1 [Compound 82]
The “RLM % inh. @ 500 nM” value of the first is lower: 0.00% for the first, 2.00% for the second.

In the case of COc1ccc(CC2CCN(c3ccn[nH]3)CC2)cc1 [Compound 79, 4-(4-Methoxybenzyl)-1-(1H-pyrazol-5-yl)piperidine], the “RLM % inh. @ 500 nM” value is reported as 4.00%.
